# Reference: ChEMBL document CHEMBL4184331 (J Med Chem, 2018)
# Activity calls are given as the source filed them. The rule behind the calls is not given here.
# How the values were obtained:
# [1] = MRTlast in Sprague-Dawley rat lung at 1 umol/kg, it by HPLC-MS/MS method; format: ADME, tissue-based; settings: inhaled or intranasal
# [2] = test system: Rattus norvegicus; assay: Antiinflammatory activity in it dosed LPS-induced Sprague-Dawley rat neutrophilic lung inflammation model assessed as inhibition of neutrophilic infiltration in bronchoalveolar lavage preincubated for 1 hr followed by LPS challenge measured after 4 hrs; format: functional; settings: read-out: ID50 (the source's name)
# [3] = test system: Rattus norvegicus; assay: Antiinflammatory activity in LPS-induced Sprague-Dawley rat neutrophilic lung inflammation model assessed as inhibition of neutrophilic infiltration in bronchoalveolar lavage at 0.1 mg/kg, it preincubated for 1 hr followed by LPS challenge measured after 4 hrs relative to control; format: functional
# [4] = test system: RAW264.7; assay: cells; settings: Mus musculus
# Description: Antiinflammatory activity in mouse RAW264.7 cells assessed as inhibition of LPS-induced nitric oxide release preincubated for 15 mins followed by LPS challenge measured after 18 hrs by Griess assay
# [5] = AUClast in Sprague-Dawley rat plasma at 1 umol/kg, it by HPLC-MS/MS method; format: ADME, cell-free; settings: inhaled or intranasal
# [6] = Cmax in Sprague-Dawley rat plasma at 1 umol/kg, it by HPLC-MS/MS method; format: ADME, cell-free; design: dose 1 umol/kg; settings: inhaled or intranasal
# [7] = test system: Rattus norvegicus; assay: Antiinflammatory activity in LPS-induced Sprague-Dawley rat neutrophilic lung inflammation model assessed as inhibition of neutrophilic infiltration in bronchoalveolar lavage at 3 mg/kg, it preincubated for 1 hr followed by LPS challenge measured after 4 hrs relative to control; format: functional
# [8] = Cmax in Sprague-Dawley rat lung at 1 umol/kg, it by HPLC-MS/MS method; format: ADME, tissue-based; design: dose 1 umol/kg; settings: in vivo, inhaled_or_intranasal
# [9] = AUClast in Sprague-Dawley rat lung at 1 umol/kg, it by HPLC-MS/MS method; format: ADME, tissue-based; settings: in vivo, inhaled_or_intranasal
# [10] = test system: Rattus norvegicus; assay: Antiinflammatory activity in LPS-induced Sprague-Dawley rat neutrophilic lung inflammation model assessed as inhibition of neutrophilic infiltration in bronchoalveolar lavage at 0.3 mg/kg, it preincubated for 1 hr followed by LPS challenge measured after 4 hrs relative to control; format: functional
# [11] = organism: Rattus norvegicus; assay: Antiinflammatory activity in LPS-induced Sprague-Dawley rat neutrophilic lung inflammation model assessed as inhibition of neutrophilic infiltration in bronchoalveolar lavage at ID80, it preincubated for 24 hrs followed by LPS challenge measured after 4 hrs relative to control; format: functional
# [12] = MRTlast in Sprague-Dawley rat plasma at 1 umol/kg, it by HPLC-MS/MS method; format: ADME, cell-free; settings: inhaled or intranasal
# [13] = test system: Rattus norvegicus; assay: Antiinflammatory activity in LPS-induced Sprague-Dawley rat neutrophilic lung inflammation model assessed as inhibition of neutrophilic infiltration in bronchoalveolar lavage at 1 mg/kg, it preincubated for 1 hr followed by LPS challenge measured after 4 hrs relative to control; format: functional
# [14] = physchem
# Description: Dissociation constant, pKa of the compound
# [15] = target: T1, Glucocorticoid receptor (Homo sapiens) (UniProt P04150); assay: Displacement of [3H]dexamethasone from human recombinant glucocorticoid receptor expressed in insect cells at 1000 nM after 24 hrs by scintillation proximity assay relative to control
# T1 sequence (whole entry): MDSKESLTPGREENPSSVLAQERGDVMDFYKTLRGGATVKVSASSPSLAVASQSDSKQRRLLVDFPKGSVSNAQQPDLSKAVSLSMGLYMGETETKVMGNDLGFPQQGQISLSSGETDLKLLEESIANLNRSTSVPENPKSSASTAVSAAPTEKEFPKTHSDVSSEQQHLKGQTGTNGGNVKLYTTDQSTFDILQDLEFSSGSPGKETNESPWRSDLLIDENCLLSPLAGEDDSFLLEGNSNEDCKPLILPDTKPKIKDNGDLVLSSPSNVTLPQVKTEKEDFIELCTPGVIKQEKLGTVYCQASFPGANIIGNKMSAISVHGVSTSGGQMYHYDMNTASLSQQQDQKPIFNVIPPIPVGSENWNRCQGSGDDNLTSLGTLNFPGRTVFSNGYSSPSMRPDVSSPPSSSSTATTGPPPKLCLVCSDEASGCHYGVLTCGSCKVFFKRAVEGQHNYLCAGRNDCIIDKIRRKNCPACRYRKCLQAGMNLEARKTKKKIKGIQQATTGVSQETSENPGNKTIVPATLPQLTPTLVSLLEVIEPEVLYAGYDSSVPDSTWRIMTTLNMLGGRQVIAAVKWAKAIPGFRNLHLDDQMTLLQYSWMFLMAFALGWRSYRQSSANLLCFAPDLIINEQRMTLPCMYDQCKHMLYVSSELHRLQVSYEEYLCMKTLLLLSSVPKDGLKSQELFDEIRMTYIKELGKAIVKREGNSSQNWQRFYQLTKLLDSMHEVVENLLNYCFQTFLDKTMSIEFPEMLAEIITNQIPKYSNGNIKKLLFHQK
# [16] = target: T2, Glucocorticoid receptor (Homo sapiens, UniProt P04150); assay: biochemical
# T2 sequence (P04150 whole entry): T1 sequence (whole entry)
# Description: Displacement of [3H]dexamethasone from human recombinant glucocorticoid receptor expressed in insect cells after 24 hrs by scintillation proximity assay
# [17] = target: T3, Mineralocorticoid receptor (Homo sapiens, UniProt P08235)
# T3 sequence (P08235 whole entry): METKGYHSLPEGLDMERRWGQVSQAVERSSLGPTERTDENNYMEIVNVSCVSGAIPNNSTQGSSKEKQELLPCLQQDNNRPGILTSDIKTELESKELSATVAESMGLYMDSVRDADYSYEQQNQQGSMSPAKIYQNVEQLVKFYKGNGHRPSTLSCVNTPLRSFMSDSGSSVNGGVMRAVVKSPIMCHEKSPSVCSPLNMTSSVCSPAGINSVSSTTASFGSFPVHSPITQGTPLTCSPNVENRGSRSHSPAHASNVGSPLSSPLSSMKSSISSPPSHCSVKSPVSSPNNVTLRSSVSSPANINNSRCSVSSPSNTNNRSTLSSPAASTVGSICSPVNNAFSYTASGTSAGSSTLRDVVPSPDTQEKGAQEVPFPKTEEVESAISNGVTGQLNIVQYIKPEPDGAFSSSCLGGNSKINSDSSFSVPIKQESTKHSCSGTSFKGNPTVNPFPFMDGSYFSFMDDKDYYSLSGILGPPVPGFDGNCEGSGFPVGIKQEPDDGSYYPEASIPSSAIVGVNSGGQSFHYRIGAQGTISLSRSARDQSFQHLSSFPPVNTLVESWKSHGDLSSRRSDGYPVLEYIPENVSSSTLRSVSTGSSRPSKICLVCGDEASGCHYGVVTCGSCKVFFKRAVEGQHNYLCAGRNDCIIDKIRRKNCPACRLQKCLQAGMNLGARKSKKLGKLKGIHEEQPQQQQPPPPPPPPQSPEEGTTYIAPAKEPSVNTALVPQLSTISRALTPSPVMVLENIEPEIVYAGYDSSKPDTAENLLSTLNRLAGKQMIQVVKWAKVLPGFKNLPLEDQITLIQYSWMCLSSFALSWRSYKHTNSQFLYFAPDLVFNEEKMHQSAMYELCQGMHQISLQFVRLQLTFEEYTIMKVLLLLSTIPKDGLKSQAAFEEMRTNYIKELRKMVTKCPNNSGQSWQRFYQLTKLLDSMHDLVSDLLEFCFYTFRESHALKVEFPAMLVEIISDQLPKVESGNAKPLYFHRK
# Description: Induction of nuclear translocation of human recombinant ProLabel-tagged mineralocorticoid receptor expressed in CHO-K1 cells after 3 hrs by luminescence method
# [18] = target: T2, Glucocorticoid receptor
# Description: Induction of nuclear translocation of human recombinant ProLabel-tagged glucocorticoid receptor expressed in CHO-K1 cells after 3 hrs by luminescence method
# [19] = test system: Rattus norvegicus; assay: Antiinflammatory activity in LPS-induced Sprague-Dawley rat neutrophilic lung inflammation model assessed as inhibition of neutrophilic infiltration in bronchoalveolar lavage at 0.03 mg/kg, it preincubated for 1 hr followed by LPS challenge measured after 4 hrs relative to control; format: functional
MRT last [1] [h],IC50 [4] [nM],AUC(0-t) [5] [µM·h],Cmax [6] [nM],Cmax [8] [nmol/g],AUClast [9] [nmol·h/g],MRT last [12] [h],Compound,ED50 [2] [µmol/kg],inhibition in vivo at 0.1 mg/kg [3] [%],inhibition in vivo at 3 mg/kg [7] [%],inhibition in vivo at 0.3 mg/kg [10] [%],inhibition [11],inhibition in vivo at 1 mg/kg [13] [%],inhibition (INH) [11] [%],pKa [14],inhibition [15] [%],Ki [16] [nM],EC50 [17] [nM],EC50 [18] [nM],inhibition in vivo at 0.03 mg/kg [19] [%]
0.71,0.82,11.6,127,18.67,110.03,1.2,CCCC1O[C@@H]2C[C@H]3[C@@H]4CCC5=CC(=O)C=C[C@]5(C)[C@H]4[C@@H](O)C[C@]3(C)[C@]2(C(=O)CO)O1 (stereo not given in full) [BUDESONIDE],0.34,29,84,45,inactive,73,,,,,,,
9.5,0.1,0.05,45,77.1,1049,1.4,C[C@@H]1C[C@H]2[C@@H]3C[C@H](F)C4=CC(=O)C=C[C@]4(C)[C@@]3(F)[C@@H](O)C[C@]2(C)[C@@]1(OC(=O)c1ccco1)C(=O)SCF [FLUTICASONE FUROATE],,,,,,,>80,,,,,,
,,,,,,,C[C@]12C=CC(=O)C=C1[C@@H](F)C[C@H]1[C@@H]3C[C@H]4CNC[C@@]4(C(=O)CO)[C@@]3(C)C[C@H](O)[C@@]12F,,,,,,,,8.82,40,,,,

Compound,MRT last [1] [h],IC50 [4] [nM],AUC(0-t) [5] [µM·h],Cmax [6] [nM],Cmax [8] [nmol/g],AUClast [9] [nmol·h/g],MRT last [12] [h],ED50 [2] [µmol/kg],inhibition in vivo at 0.1 mg/kg [3] [%],inhibition in vivo at 3 mg/kg [7] [%],inhibition in vivo at 0.3 mg/kg [10] [%],inhibition [11],inhibition in vivo at 1 mg/kg [13] [%],inhibition (INH) [11] [%],pKa [14],inhibition [15] [%],Ki [16] [nM],EC50 [17] [nM],EC50 [18] [nM],inhibition in vivo at 0.03 mg/kg [19] [%]
C[C@]12C=CC(=O)C=C1[C@@H](F)C[C@H]1[C@@H]3C[C@H]4CN(Cc5cccc(Cl)c5)C[C@@]4(C(=O)CO)[C@@]3(C)C[C@H](O)[C@@]12F,16.7,0.08,0.118,110,64.26,871.2,1.4,0.097,56,,64,,92,>80,6.64,,0.76,2.5,1.8,47
